Data taken from patent US20240360361A1, “PIPERAZINE BIS-UREA AND BIS-THIOUREA-BASED CORROSION INHIBITOR COMPOUNDS FOR STEEL PROTECTION” (QATAR UNIVERSITY, priority 2023, published 2024).
Where “and” joins values, the source holds several entries; their conditions need not be identical. Identical values can stand only once.

Experiments:
[1] = Tafel extrapolation (potentiodynamic polarization) of carbon steel in 1M HCl
Description: (§1) Corrosion inhibition efficiency (IE % or r %) is a measure of the efficiency of an inhibitor to effectively decrease a corrosion rate. Corrosion inhibition efficiency may be measured with the Tafel extrapolation of potentiodynamic polarization (PDP).
(§2) To investigate the effect of Inhibitor 1 on corrosion mechanisms, electrochemical measurements were obtained using Tafel and A.C. impedance experiments. FIGS. 1 and 2 show Tafel and AC impedance curves of carbon steel after adding 50 to 200 ppm of Inhibitor 1 to 1M HCl solution.
(§3) The Tafel extrapolation method was used to fit the curves and obtain corrosion parameters. […] The lowest reported current density at 200 ppm concentration was 4.5 μA·cm^−2, […] than 155 μA·cm^−2 recorded for blank 1M HCl. […] The charge transfer resistance reached the maximum of 1430 Ω·cm^2 at 200 ppm and Inhibitor 1 yielded around 93% efficiency after enhancing it from 116 Ω·cm^2 for the blank solution. Inhibitor 1 is a highly efficient corrosion inhibitor even at low concentrations; at concentrations of 50 ppm and 75 ppm, it yielded an 82% and 90% efficiency, respectively.

[2] = AC impedance of carbon steel in 1M HCl; settings: 200 ppm inhibitor
Description: as §2, §3

[3] = Tafel extrapolation of C-steel in 5M HCl, three-electrode cell
Protocol: as §1
(§4) Electrochemical experiments were carried out using the three-electrode cell assembly (FIG. 4). Tafel and AC impedance measurements were obtained to elucidate the corrosion mechanisms and understand the interactions at the solution-surface interface. The effect of adding 10 to 200 ppm Inhibitor 2 on the C-steel corrosion in 5M HCl solution was determined by AC impedance and Tafel curves (FIG. 5 and FIG. 6).
(§5) Furthermore, electrochemical parameters describing the kinetics of the corrosion process were acquired following the Tafel extrapolation method to fit the curves of FIG. 6. […] Inhibitor 2 successfully achieved 95% efficiency in the highly corrosive condition of 5M HCl at a tolerable quantity of only 200 ppm concentration.

[4] = AC impedance of C-steel in 5M HCl, three-electrode cell; set-up: unit not given here; settings: 200 ppm inhibitor
Protocol: as §4, §5

With `O=C(NCCCN1CCN(CCCNC(=O)Nc2ccc([N+](=O)[O-])cc2)CC1)Nc1ccc([N+](=O)[O-])cc1` [Inhibitor 1] the “% Inhibition Efficiency” value ([1]; 50 ppm inhibitor) was 82%, the Corrosion rate ([1]; 50 ppm inhibitor) was 13 mils · year^−1 and the Current density ([1]; 50 ppm inhibitor) was 29 μA · cm^−2. For the same compound, the “% Inhibition Efficiency” value ([1]; 75 ppm inhibitor) was 90%, the Corrosion rate ([1]; 75 ppm inhibitor) was 6.8 mils · year^−1 and the Current density ([1]; 75 ppm inhibitor) was 15 μA · cm^−2. The “% Inhibition Efficiency” value ([1]; 100 ppm inhibitor) was 92%, the Corrosion rate ([1]; 100 ppm inhibitor) was 5.5 mils · year^−1 and the Current density ([1]; 100 ppm inhibitor) was 12 μA · cm^−2. The “% Inhibition Efficiency” value ([1]; 200 ppm inhibitor) was 97%, the Corrosion rate ([1]; 200 ppm inhibitor) was 2 mils · year^−1 and 2.0 mils · year^−1 and the Current density ([1]; 200 ppm inhibitor) was 4.5 μA · cm^−2. For the same compound, the Charge transfer resistance [2] was 1430 Ω·cm^2, the “Efficiency from charge transfer resistance (AC impedance)” value [2] was “around 93%” and the Corrosion rate ([3]; 10 ppm inhibitor) was 360 mils · year^−1. For the same compound, the Current density ([3]; 10 ppm inhibitor) was 787 μA · cm^−2, the “Inhibition Efficiency %” value ([3]; 10 ppm inhibitor) was 57% and the Corrosion rate ([3]; 50 ppm inhibitor) was 196 mils · year^−1. The Current density ([3]; 50 ppm inhibitor) was 429 μA · cm^−2, the “Inhibition Efficiency %” value ([3]; 50 ppm inhibitor) was 77% and the Corrosion rate ([3]; 100 ppm inhibitor) was 96 mils · year^−1. For the same compound, the Current density ([3]; 100 ppm inhibitor) was 209 μA · cm^−2, the “Inhibition Efficiency %” value ([3]; 100 ppm inhibitor) was 89% and the Corrosion rate ([3]; 200 ppm inhibitor) was 46 mils · year^−1. For the same compound, the Current density ([3]; 200 ppm inhibitor) was 100 μA · cm^−2, the “Inhibition Efficiency %” value ([3]; 200 ppm inhibitor) was 95% and the “Reduction of current density versus 5M HCl blank” value ([3]; 200 ppm inhibitor) was “about 18.5 fold”.
For `O=[N+]([O-])c1ccc(NC(=S)NCCCN2CCN(CCCNC(=S)Nc3ccc([N+](=O)[O-])cc3)CC2)cc1` [Inhibitor 2], the Corrosion rate ([3]; 200 ppm inhibitor) was 46 mils · year^−1, the “Inhibition Efficiency %” value ([3]; 200 ppm inhibitor) was 95% and the “Charge transfer resistance (RCT)” value [4] was 83.4.
